# Laboratory results reported in patent publication US20220040150A1, “I[…] ADMI[…] FOR DMT-ASSISTED PSYCHOTHERAPY” (Universitatsspital Basel, priority 2020, published 2022).
# “Also recorded” adds a separate entry of the source. Like-named read-outs stand apart in the source and are kept apart here.
# Experiments:
# healthy subjects [1] = test: Example 1 clinical study: adverse effects and list of complaints
# Protocol: Identical placebo (saline) was prepared.
# Adverse effects and list of complaints: The list of complaints (LC) consists of 66 items offering a global score measuring physical and general discomfort (Zerssen, 1976). The LC list is administered before and at the end of the session with reference to complaints throughout the entire session.
# [2] = test system: experienced hallucinogen-using volunteers; settings: 0.3 mg/kg iv at half-hour intervals 4 times in a morning; cited from earlier work
# healthy subjects [3] = test: Example 1 clinical study: blood pressure and heart rate; settings: perfusion with or without bolus
# [4] = molecular target: serotonin 5-HT2A receptor (Homo sapiens, UniProt P28223); settings: similar to LSD and psilocybin; cited from earlier work
# [5] = 0.3 mg/kg iv, cited from earlier work
# [6] = Plasma levels of DMT after intravenous bolus plus continuous infusion (Gouzoulis-Mayfrank et al., 2005); assay type: in vivo; settings: human
# Protocol: Previous research already documented the rapid action of DMT and its safety (Gouzoulis-Mayfrank et al., 2005). A study included 15 healthy volunteers. DMT was given at either a low or a high dose. The low dose consisted of a bolus injection of 0.2 mg/kg (˜15 mg) over 5 minutes followed by a break of one minute, followed by a continuous infusion with 0.015 mg/kg (˜1 mg)/min over 84 minutes. The high dose consisted of a bolus injection of 0.3 mg/kg (˜23 mg) and a continuous infusion with 0.02 mg/kg (˜1.5 mg)/min. The two doses were administered on the same day with a two-hour break between the end of the first and the beginning of the second administration in a single-blind design. Subjective effects were assessed and plasma concentrations of DMT were determined during the perfusion and thereafter. Effects of both doses included vivid alterations of visual, auditory, and tactile perception. […] Most subjects tended to report their experiences during the experiment spontaneously, and they were interested in interpersonal interactions. Mood varied from anxious and tense to expansive and euphoric with mostly vivid verbal, mimic, and psychomotor expression of emotions. Ego-control and insight into the experimental nature of the experience were preserved at the low dose. […]
# [7] = molecular target: T1, monoamine oxidase (MAO) A (Homo sapiens, UniProt P21397); settings: cited from earlier work
# T1 sequence (P21397 1-527): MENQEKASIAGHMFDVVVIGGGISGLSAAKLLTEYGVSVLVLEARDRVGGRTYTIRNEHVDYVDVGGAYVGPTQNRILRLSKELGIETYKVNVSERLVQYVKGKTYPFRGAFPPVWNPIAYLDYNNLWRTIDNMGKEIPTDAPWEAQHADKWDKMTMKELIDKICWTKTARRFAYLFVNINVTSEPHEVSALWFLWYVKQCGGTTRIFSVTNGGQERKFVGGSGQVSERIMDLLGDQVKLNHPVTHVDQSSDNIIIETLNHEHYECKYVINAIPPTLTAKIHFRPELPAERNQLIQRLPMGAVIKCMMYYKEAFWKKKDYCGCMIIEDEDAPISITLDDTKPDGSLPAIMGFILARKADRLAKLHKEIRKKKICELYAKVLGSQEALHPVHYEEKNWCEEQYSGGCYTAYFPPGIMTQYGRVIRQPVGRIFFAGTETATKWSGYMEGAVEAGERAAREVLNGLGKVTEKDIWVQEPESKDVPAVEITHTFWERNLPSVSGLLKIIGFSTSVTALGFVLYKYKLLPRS
# [8] = cited from earlier work
# [9] = test system: healthy subjects with previous hallucinogen experience; settings: cited from earlier work
# healthy volunteers = settings: cited from earlier work
# Sequence of serotonin 5-HT2A receptor (P28223 whole entry): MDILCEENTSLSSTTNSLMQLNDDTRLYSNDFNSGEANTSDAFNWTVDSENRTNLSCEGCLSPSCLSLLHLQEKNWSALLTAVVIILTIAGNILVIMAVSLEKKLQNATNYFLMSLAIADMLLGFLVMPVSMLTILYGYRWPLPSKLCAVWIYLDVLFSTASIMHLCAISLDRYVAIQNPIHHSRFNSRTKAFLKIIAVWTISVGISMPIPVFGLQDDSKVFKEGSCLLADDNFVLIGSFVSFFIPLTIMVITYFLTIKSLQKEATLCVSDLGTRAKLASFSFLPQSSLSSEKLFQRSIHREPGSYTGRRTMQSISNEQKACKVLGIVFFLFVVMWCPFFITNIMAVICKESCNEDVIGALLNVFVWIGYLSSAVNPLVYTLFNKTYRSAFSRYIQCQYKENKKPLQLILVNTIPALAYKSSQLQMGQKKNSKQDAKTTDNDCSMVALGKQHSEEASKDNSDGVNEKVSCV
smiles,measurement,setting,value
"CN(C)CCc1c[nH]c2ccccc12 [DMT, N,N-dimethyltryptamine]",relevant adverse effects,healthy subjects [1]; Example 1,did not result in relevant adverse effects
same,safety of administration,healthy subjects [1]; Example 1,safe
same,highest dose still well-tolerated by the study population,"healthy subjects [1]; perfusion rate, Example 1",1 mg of DMT/min
same,reported complaints,"healthy subjects [1]; perfusion without bolus, two subjects","lack of appetite; also recorded: tiredness, palpitations, cold feet, and dry mouth"
same,Tolerance to the subjective effects of DMT,[2],did not occur
same,effect on blood pressure and heart rate,healthy subjects [3],only moderately and transiently increased blood pressure
same,interaction with the serotonin 5-HT2A receptor,[4],interacts
same,blood DMT levels,[5]; after 2 minutes,~70 ng/mL
same,blood DMT levels,[5]; after 5 minutes,~50 ng/mL
same,blood DMT levels,[5]; after 10 minutes,~30 ng/mL
same,blood DMT levels,[5]; after 15 minutes,~18 ng/mL
same,half-life,"[6]; in line with subjective effects and Strassman data, read-out: true half-life (likely)",~10 min
same,half-life,"[6]; indicated by the very crude and possibly invalid plasma data, read-out: elimination half-life",~30 min
same,metabolism by monoamine oxidase (MAO) A,[7],rapidly metabolized
same,Plasma levels of DMT,"[8]; 10 minutes before start of second dose, 110 minutes after stopping the first infusion",5 ± 3 ng/mL
same,Mean plasma levels of DMT,"[8]; high dose: bolus 0.3 mg/kg, then infusion 0.02 mg/kg/min",60 ± 28 ng/mL
same,Mean plasma levels of DMT,"[8]; low dose: bolus 0.2 mg/kg over 5 minutes, then infusion 0.015 mg/kg/min over 84 minutes",43 ± 26 ng/mL
same,threshold dose for hallucinogenic effects,[9]; iv bolus,0.2 mg/kg
same,time to peak of effects after injection,[9]; iv bolus,≤ 2 min
same,time within which effects resolved,[9]; iv bolus,20 to 30 min
same,hallucinogenic effect,"[9]; lower doses (0.05, 0.1 mg/kg) iv bolus",not hallucinogenic
same,hallucinogenic effect,[9]; two higher doses of 0.2 and 0.4 mg/kg iv bolus,fully hallucinogenic
same,time within which subjective effects subsided,healthy volunteers; after stopping infusion,≤ 20 min
same,subjects who stopped after the first DMT dose due to adverse responses,healthy volunteers; among the 15 subjects,3
same,persons reporting visual hallucinations,healthy volunteers; high dose,all participants
same,time for adverse effects to vanish from stopping the infusion,healthy volunteers; in vivo,within a few minutes
same,persons reporting visual hallucinations,"healthy volunteers; low dose, 15 healthy volunteers",seven
same,lasting complaints at interviews,healthy volunteers; seven days and 12 months after the experiments,no lasting complaints
same,subjects reporting tiredness and headache in the evening of the experiment,healthy volunteers; subjects who received DMT,10 out of 13
